Measured values from patent US8481534B2, “5- and 6-membered heterocyclic compounds” (EnVivo Pharmaceuticals, Inc., priority 2008, dated 2013).

test system: apomorphine induced stereotypes; experiment: not given; settings: rats; cited from earlier work

| SMILES | apomorphine induced stereotypes |
| --- | --- |
| COc1ccc(Cc2nccc3cc(OC)c(OC)cc23)cc1OC [papaverine] | reduces |

target: Human PDE10A1 (Homo sapiens, UniProt Q9Y233); experiment: hPDE10A1 enzyme inhibition ([3H]-cAMP hydrolysis, scintillation counting); format: biochemical; settings: Human PDE10A1, [3H]-cAMP substrate, 20 minutes at 37° C.; read-out: hPDE10A1 IC50 Band
Sequence (Q9Y233 1-779 isoform Q9Y233-1): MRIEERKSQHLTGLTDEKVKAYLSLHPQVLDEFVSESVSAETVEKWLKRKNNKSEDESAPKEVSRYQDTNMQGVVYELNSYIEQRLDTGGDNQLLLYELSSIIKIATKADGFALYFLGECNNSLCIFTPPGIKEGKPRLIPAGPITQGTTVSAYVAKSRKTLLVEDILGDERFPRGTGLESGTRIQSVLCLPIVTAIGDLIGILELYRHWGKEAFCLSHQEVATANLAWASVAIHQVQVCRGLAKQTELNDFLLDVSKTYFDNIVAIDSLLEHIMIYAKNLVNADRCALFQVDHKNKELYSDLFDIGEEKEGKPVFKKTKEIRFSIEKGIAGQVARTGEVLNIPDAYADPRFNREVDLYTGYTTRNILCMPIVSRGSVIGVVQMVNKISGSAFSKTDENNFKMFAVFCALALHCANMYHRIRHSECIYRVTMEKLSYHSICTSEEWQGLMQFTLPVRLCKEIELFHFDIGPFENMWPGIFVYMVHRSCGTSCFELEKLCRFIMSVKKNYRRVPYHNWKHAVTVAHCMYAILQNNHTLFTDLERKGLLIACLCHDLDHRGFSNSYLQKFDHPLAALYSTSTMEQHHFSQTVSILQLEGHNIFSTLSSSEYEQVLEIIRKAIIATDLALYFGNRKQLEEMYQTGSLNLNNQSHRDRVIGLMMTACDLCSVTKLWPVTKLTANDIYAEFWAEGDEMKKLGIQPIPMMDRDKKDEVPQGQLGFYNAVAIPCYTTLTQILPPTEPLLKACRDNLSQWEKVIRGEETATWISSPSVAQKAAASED
Description: 50 μl samples of serially diluted Human PDE10A1 enzyme were incubated with 50 μl of [^3H]-cAMP for 20 minutes (at 37° C.). Reactions were carried out in Greiner 96 deep well 1 ml master-block. The enzyme was diluted in 20 mM Tris HCl pH7.4 and [^3H]-cAMP was diluted in 10 mM MgCl2, 40 mM Tris.HCl pH 7.4. The reaction was terminated by denaturing the PDE enzyme (at 70° C.) after which [^3H]-5′-AMP was converted to [^3H]-adenosine by adding 25 μl snake venom nucleotidase and incubating for 10 minutes (at 37° C.). Adenosine, being neutral, was separated from charged cAMP or AMP by the addition of 200 μl Dowex resin. Samples were shaken for 20 minutes then centrifuged for 3 minutes at 2,500 r.p.m. 50 μl of supernatant was removed and added to 200 μl of MicroScint-20 in white plates (Greiner 96-well Optiplate) and shaken for 30 minutes before reading on Perkin Elmer TopCount Scintillation Counter.
To check inhibition profile 11 μl of serially diluted inhibitor was added to 50 μl of [^3H]-cAMP and 50 μl of diluted Human PDE10A1 and assay was carried out as in the enzyme activity assay. Data was analysed using Prism software (GraphPad Inc).

| SMILES | IC50 [µM] |
| --- | --- |
| COc1ccc(C2=C(c3ccc(OCc4ccc5ccccc5n4)cc3)C(=O)OC2)cc1C#N [Example 55, 2-Methoxy-5-(5-oxo-4-(4-(quinolin-2-ylmethoxy)phenyl)-2,5-dihydrofuran-3-yl)benzonitrile] | ≤ 0.05 |
| CN1CC(c2ccncc2)=C(c2ccc(OCc3ccc4ccccc4n3)cc2)C1=O [Example 94, 1-Methyl-4-(pyridin-4-yl)-3-(4-(quinolin-2-ylmethoxy)phenyl)-1H-pyrrol-2(5H)-one] | ≤ 0.05 |
| COc1ccc(C2=C(c3ccc(OCc4ccc5ccccc5n4)cc3)C(=O)N(C)C2)cc1 [Example 125, 4-(4-Methoxyphenyl)-1-methyl-3-(4-(quinolin-2-ylmethoxy)phenyl)-1H-pyrrol-2(5H)-one] | ≤ 0.05 |
| O=c1o[nH]c(-c2ccncc2)c1-c1ccc(OCc2ccc3ccccc3n2)cc1 [Example 1094, 3-(Pyridin-4-yl)-4-(4-(quinolin-2-ylmethoxy)phenyl)isoxazol-5(2H)-one] | ≤ 0.05 |
| COc1ccc(C2=C(c3ccc(OCc4cccc(C)n4)cc3)COC2=O)cc1 [Example 1095, 3-(4-methoxyphenyl)-4-(4-((6-methylpyridin-2-yl)methoxy)phenyl)furan-2(5H)-one] | > 0.05 |
| O=c1[nH][nH]c(-c2ccncc2)c1-c1ccc(OCc2ccc3ccccc3n2)cc1 [Example 1096, 5-(Pyridin-4-yl)-4-(4-(quinolin-2-ylmethoxy)phenyl)-1H-pyrazol-3(2H)-one] | > 0.05 |
| Cn1[nH]c(-c2ccncc2)c(-c2ccc(OCc3ccc4ccccc4n3)cc2)c1=O [Example 1097, 2-Methyl-5-(pyridin-4-yl)-4-(4-(quinolin-2-ylmethoxy)phenyl)-1H-pyrazol-3(2H)-one] | > 0.05 |
| O=C1OCC(c2ccncc2)=C1c1ccc(OCc2ccc3ccccc3n2)c(Cl)c1 [Example 1099, 3-(3-chloro-4-(quinolin-2-ylmethoxy)phenyl)-4-(pyridin-4-yl)furan-2(5H)-one] | > 0.05 |

Next, values leading:

| IC50 [µM] | SMILES |
| --- | --- |
| ≤ 0.05 | COc1ccc(C2=C(c3ccc(OCc4ccc5ccccc5n4)cc3)COC2=O)cc1 [Example 14] |
| ≤ 0.05 | O=C1OCC(c2ccncc2)=C1c1ccc(OCc2ccc3ccccc3n2)cc1 [Example 37, 4-(Pyridin-4-yl)-3-(4-(quinolin-2-ylmethoxy)phenyl)furan-2(5H)-one] |
| ≤ 0.05 | COc1ccc(C2=C(c3ccc(OCc4ccc5ccccc5n4)cc3)C(=O)OC2)cc1F [Example 53, 4-(3-fluoro-4-methoxyphenyl)-3-(4-(quinolin-2-ylmethoxy)phenyl)furan-2(5H)-one] |
| ≤ 0.05 | COc1ccc(C2=C(c3ccc(OCc4ccc5ccccc5n4)cc3)C(=O)OC2)cc1Cl [Example 54, 4-(3-Chloro-4-methoxyphenyl)-3-(4-(quinolin-2-ylmethoxy)phenyl)furan-2(5H)-one] |
| ≤ 0.05 | COc1ccc(C2=C(c3ccc(OCc4ccc5ccccc5n4)cc3)C(=O)OC2)cc1 [Example 59, 4-(4-Methoxyphenyl)-3-(4-(quinolin-2-ylmethoxy)phenyl)furan-2(5H)-one] |
| > 0.05 | COc1ccc(C2=C(c3ccc(OCc4ccc5ccccc5n4)cc3Cl)COC2=O)cc1 [Example 424, 4-(2-chloro-4-(quinolin-2-ylmethoxy)phenyl)-3-(4-methoxyphenyl)furan-2(5H)-one] |
| > 0.05 | O=C1OCC(N2CCOCC2)=C1c1ccc(OCc2ccc3ccccc3n2)cc1 [Example 1085, 4-Morpholino-3-(4-(quinolin-2-ylmethoxy)phenyl)furan-2(5H)-one] |
| > 0.05 | O=C1OCC(c2cccnc2)=C1c1ccc(OCc2ccc3ccccc3n2)cc1 [Example 1098, 4-(Pyridin-3-yl)-3-(4-(quinolin-2-ylmethoxy)phenyl)furan-2(5H)-one] |

test system: haloperidol induced catalepsy; experiment: not given; settings: rats; cited from earlier work

| SMILES | haloperidol induced catalepsy |
| --- | --- |
| COc1ccc(Cc2nccc3cc(OC)c(OC)cc23)cc1OC [papaverine] | increases |

test system: rat brain dopamine levels; experiment: not given; settings: rats; cited from earlier work

| SMILES | rat brain dopamine levels |
| --- | --- |
| COc1ccc(Cc2nccc3cc(OC)c(OC)cc23)cc1OC [papaverine] | reduces |
